US8466157B2, “Proteasome inhibitors having chymotrypsin-like activity” (University of South Florida, priority 2009, dated 2013)
Values joined by “and” are separate entries in the source; they are usually repeats but may differ in a detail not shown here. Identical values can stand only once. Like-named read-outs stand apart in the source and are kept apart here.

Biological target: T1, chymotrypsin-like activity of the purified rabbit 20S proteasome (Oryctolagus cuniculus, UniProt G1T4Q9)
T1 sequence (G1T4Q9 1-263): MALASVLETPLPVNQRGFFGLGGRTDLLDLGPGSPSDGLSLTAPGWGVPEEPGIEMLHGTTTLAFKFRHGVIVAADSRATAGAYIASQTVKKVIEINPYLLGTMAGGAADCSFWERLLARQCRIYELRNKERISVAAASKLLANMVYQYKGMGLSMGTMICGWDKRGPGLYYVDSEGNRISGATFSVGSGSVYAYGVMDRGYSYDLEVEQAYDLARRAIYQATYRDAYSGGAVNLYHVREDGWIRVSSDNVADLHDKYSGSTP
Assay: 20S proteasome inhibition assay, fluorogenic substrate Suc-Leu-Leu-Val-Tyr-AMC;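 further: enzyme and 20 µM substrate incubated 1 h at 37 °C in Tris-HCl buffer pH 7.6, fluorogenic read-out, inhibition calculated against vehicle control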
Format: biochemical
Details: for proteasome inhibitory activity, SAR statement in words: chymotrypsin-like activity, compared with lead or analogue

[1] = individual determinations (runs M-1096, M-1098, M-1099, AK or dated), read-out: Chymotrypsin-like Activity IC50
[2] = mean of the individual determinations, read-out: Chymotrypsin-like Activity IC50 (μM), mean ± spread (n)
[3] = 30 μM, runs M-1096, M-1098, M-1099

Row | IC50 [1] | Structure (SMILES) | other results
1 | 0.81 µM and 1.5 µM and 1.52 µM and 0.9 µM | COC(=O)CCSc1cc(NS(=O)(=O)c2cc(Cl)c(Cl)s2)c2ccccc2c1O [HL4-098-3, Methyl-3-(4-(4,5-dichlorothiophene-2-sulfonamido)-1-hydroxynaphthalen-2-ylthio)propanoate] | –
2 | > 10 µM | CN(C)C(=O)CCSc1cc(NS(=O)(=O)c2cccs2)c2ccccc2c1O [HL4-100-1, 3-(1-hydroxy-4-(thiophene-2-sulfonamido)naphthalen-2-ylthio)-N,N-dimethylpropanamide] | –
3 | > 10 µM | CNC(=O)CCSc1cc(NS(=O)(=O)c2cccs2)c2ccccc2c1O [HL4-100-2, 3-(1-hydroxy-4-(thiophene-2-sulfonamido)naphthalen-2-ylthio)-N-methylpropanamide] | –
4 | 8.6 µM and 6 µM and > 10 µM | O=C(CCSc1cc(NS(=O)(=O)c2cccs2)c2ccccc2c1O)NC1CC1 [HL4-100-3, N-cyclopropyl-3-(1-hydroxy-4-(thiophene-2-sulfonamido)naphthalen-2-ylthio)propanamide] | IC50 [2]: 7.3 µM
5 | > 30 µM and > 100 µM and 35 µM | O=S(=O)(Nc1ccc(O)c2ccccc12)c1cccs1 [YG1-004, N-(4-hydroxynaphthalen-1-yl)thiophene-2-sulfonamide] | Chymotrypsin-like Activity Inhib at 100 μM (100 μM): 44% and 67%; proteasome inhibitory activity, SAR statement in words: loss of the inhibitory activity
6 | > 30 µM and 45 µM and 36 µM | O=S(=O)(Nc1cc(Cl)c(O)c2ccccc12)c1cccs1 [YG1-012, N-(3-chloro-4-hydroxynaphthalen-1-yl)thiophene-2-sulfonamide] | Chymotrypsin-like Activity Inhibition at 30 μM [3]: 41% and 45%; inhibition at 30 µM [3]: 33%; Chymotrypsin-like Activity Inhib at 100 μM (100 μM): 97%; inhibition at 100 µM (100 μM, read-out: Chymotrypsin-like Activity Inhib at 100 μM): 82%
7 | > 30 µM and > 100 µM and 28 µM | O=S(=O)(Nc1cc(Br)c(O)c2ccccc12)c1cccs1 [YG1-034, N-(3-bromo-4-hydroxynaphthalen-1-yl)thiophene-2-sulfonamide] | –
8 | > 10 µM | O=S(=O)(Nc1cc(SCCO)c(O)c2ccccc12)c1cccs1 [YG1-087-2, N-(4-hydroxy-3-(2-hydroxyethylthio)naphthalen-1-yl)thiophene-2-sulfonamide] | proteasome inhibitory activity, SAR statement in words: the inhibitory activity totally lost
9 | 2.67 µM and 9.65 µM and 9.5 µM | CCOC(=O)CSc1cc(NS(=O)(=O)c2cccs2)c2ccccc2c1O [YG1-094-2] | –
10 | 2.28 µM and 2.26 µM and 6.6 µM and 3.9 µM and 7.1 µM and 7.7 µM | COC(=O)CCSc1cc(NS(=O)(=O)c2cccs2)c2ccccc2c1O [YG1-107] | –
11 | 0.68 µM and 2.71 µM and 2.9 µM and 1.9 µM and 2.2 µM | O=C(O)CSc1cc(NS(=O)(=O)c2ccccc2)c2ccccc2c1O [YG1-117, 2-(1-hydroxy-4-(phenylsulfonamido)naphthalen-2-ylthio)acetic acid] | IC50 (value quoted in running text / FIG. 11, read-out: IC50 against chymotrypsin-like proteasome activity): 2.08 µM
12 | > 10 µM | CN(C)C1=C/C(=N\S(=O)(=O)c2cccs2)c2ccccc2C1=O [YG1-125, N-(3-(dimethylamino)-4-oxonaphthalen-1(4H)-ylidene)thiophene-2-sulfonamide] | –
13 | 8.2 µM and > 10 µM (2×) | CCOC(=O)CS(=O)(=O)c1cc(NS(=O)(=O)c2cccs2)c2ccccc2c1O [YG1-133, Ethyl 2-(1-hydroxy-4-(thiophene-2-sulfonamido)naphthalen-2-ylsulfonyl)acetate] | –
14 | > 10 µM | O=C(O)CS(=O)(=O)c1cc(NS(=O)(=O)c2cccs2)c2ccccc2c1O [YG1-134, 2-(1-hydroxy-4-(thiophene-2-sulfonamido)naphthalen-2-ylsulfonyl)acetic acid] | proteasome inhibitory activity, SAR statement in words: loss or reduction of the inhibitory activity
15 | > 10 µM and 3.44 µM and 4.15 µM | O=C(O)CSc1cc(NS(=O)(=O)c2ccc(Cl)cc2)c2ccccc2c1O [YG2-034-1, 2-(4-(4-chlorophenylsulfonamido)-1-hydroxynaphthalen-2-ylthio)acetic acid] | –
16 | > 10 µM | CC(C)(C)OC(=O)COc1ccc(NS(=O)(=O)c2cccs2)c2ccccc12 [YG2-080, tert-butyl 2-(4-(thiophene-2-sulfonamido)naphthalen-1-yloxy)acetate] | –
17 | > 10 µM | O=C(O)COc1ccc(NS(=O)(=O)c2cccs2)c2ccccc12 [YG2-083, 2-(4-(thiophene-2-sulfonamido)naphthalen-1-yloxy)acetic acid] | –
18 | 9.4 µM and 9.85 µM | CCSC1=C/C(=N\S(=O)(=O)c2cccs2)c2ccccc2C1=O [YG2-086-1, N-(3-(ethylthio)-4-oxonaphthalen-1(4H)-ylidene)thiophene-2-sulfonamide] | –
19 | > 10 µM | O=C(O)CCCOc1ccc(NS(=O)(=O)c2cccs2)c2ccccc12 [YG2-094, 4-(4-(thiophene-2-sulfonamido)naphthalen-1-yloxy)butanoic acid] | –
20 | 1.1 µM and 1.79 µM | O=C1CSc2cc(NS(=O)(=O)c3cccs3)c3ccccc3c2O1 [YG2-120, N-(2-oxo-2,3-dihydronaphtho[1,2-b][1,4]oxathiin-6-yl)thiophene-2-sulfonamide] | –
21 | 4.25 µM and 2.75 µM | O=C1C(Cl)=C/C(=N\S(=O)(=O)c2cccs2)c2ccccc21 [YG2-133-2] | –
22 | > 10 µM | O=C(O)CSc1ccc(NS(=O)(=O)c2cccs2)c2ccccc12 [YG3-007, 2-(4-(thiophene-2-sulfonamido)naphthalen-1-ylthio)acetic acid] | –
23 | > 10 µM | CC(C)(C)OC(=O)COc1cc(NS(=O)(=O)c2cccs2)c2ccccc2c1O [YL2-025, tert-Butyl-2-(1-hydroxy-4-(thiophene-2-sulfonamido)naphthalen-2-yloxy)acetate] | –

Second part, the molecule before the results:

Row | Structure (SMILES) | IC50 [1] | other results
24 | CCOC(=O)CSc1cc(NS(=O)(=O)c2cccs2)c2ccccc2c1O [9a, Ethyl 2-(1-hydroxy-4-(thiophene-2-sulfonamido)naphthalen-2-ylthio)acetate] | – | proteasome inhibitory activity, SAR statement in words: reduced compared to acid analogues
25 | CN(C)C(=O)CCSC1=C/C(=N\S(=O)(=O)c2cccs2)c2ccccc2C1=O [HL4-078-1, N,N-dimethyl-3-(1-oxo-4-(thiophen-2-ylsulfonylimino)-1,4-dihydronaphthalen-2-ylthio)propanamide] | 4.7 µM and 9.65 µM and 9.56 µM and 8.5 µM and > 10 µM | IC50 [2]: 8.1 µM
26 | CNC(=O)CCSC1=C/C(=N\S(=O)(=O)c2cccs2)c2ccccc2C1=O [HL4-078-2, N-methyl-3-(1-oxo-4-(thiophen-2-ylsulfonylimino)-1,4-dihydronaphthalen-2-ylthio)propanamide] | 8.1 µM and > 10 µM (2×) | –
27 | O=C(CCSC1=C/C(=N\S(=O)(=O)c2cccs2)c2ccccc2C1=O)NC1CC1 [HL4-078-3, N-cyclopropyl-3-(1-oxo-4-(thiophen-2-ylsulfonylimino)-1,4-dihydronaphthalen-2-ylthio)propanamide] | 5.5 µM and 8.65 µM and > 10 µM (2×) | IC50 [2]: 8.05 µM
28 | O=C1C=C(O)C(=O)c2ccccc21 [S.M. of YL2-013, 2-hydroxynaphthalene-1,4-dione] | > 10 µM | –
29 | CCOC(=O)CSC1=C(SCC(=O)OCC)C(=O)c2ccccc2C1=O [YG1-017] | > 30 µM and 48 µM and > 100 µM | Chymotrypsin-like Activity Inhib at 100 μM (100 μM): 57% and 36%
30 | CCOC(=O)CSC1=CC(=O)c2ccccc2C1=O [YG1-059, Ethyl 2-(1,4-dioxo-1,4-dihydronaphthalen-2-ylthio)acetate] | > 100 µM | inhibition at 30 µM [3]: 49%
31 | CCOC(=O)CSC1=C/C(=N\S(=O)(=O)c2cccs2)c2ccccc2C1=O [YG1-094] | 1.6 µM and > 10 µM and 2.8 µM and 3 µM and 1.5 µM and 2.5 µM | IC50 [2]: 2.28 µM
32 | COC(=O)CCSC1=C/C(=N\S(=O)(=O)c2cccs2)c2ccccc2C1=O [YG1-112] | 2.2 µM and 5.9 µM and 6.1 µM and > 10 µM (2×) and 6 µM and 3 µM | IC50 [2]: 4.64 µM
33 | CCOC1=C/C(=N\S(=O)(=O)c2cccs2)c2ccccc2C1=O [YG1-122, N-(3-ethoxy-4-oxonaphthalen-1(4H)-ylidene)thiophene-2-sulfonamide] | > 10 µM | –
34 | O=C1C(N2CCN(c3ccccn3)CC2)=C/C(=N\S(=O)(=O)c2cccs2)c2ccccc21 [YG1-130] | > 10 µM | –
35 | CCOC(=O)CSc1cc(NS(=O)(=O)c2ccc([N+](=O)[O-])cc2)c2ccccc2c1O [YG1-148F5, Ethyl 2-(1-hydroxy-4-(4-nitrophenylsulfonamido)naphthalen-2-ylthio)acetate] | 0.82 µM and 4.55 µM and 5.36 µM | proteasome inhibitory activity, SAR statement in words: slightly enhanced the activity
36 | O=C(O)c1cccc(NC2=C/C(=N\S(=O)(=O)c3cccs3)c3ccccc3C2=O)c1 [YG1-174, 3-(1-oxo-4-(thiophen-2-ylsulfonylimino)-1,4-dihydronaphthalen-2-ylamino)-benzoic acid] | > 10 µM | –
37 | CCOC(=O)CSC1=C/C(=N\S(=O)(=O)c2ccc(-c3ccccc3)cc2)c2ccccc2C1=O [YG2-011] | > 10 µM | –
38 | CCOC(=O)CSC1=C/C(=N\S(=O)(=O)c2ccc(C)cc2)c2ccccc2C1=O [YG2-014, Ethyl 2-(1-oxo-4-(tosylimino)-1,4-dihydronaphthalen-2-ylthio)acetate] | 4 µM and 4.7 µM and 4.2 µM and > 10 µM | IC50 [2]: 4.3 µM
39 | CCOC(=O)CSC1=C/C(=N\S(=O)(=O)Cc2ccc(Cl)cc2)c2ccccc2C1=O [YG2-019, Ethyl 2-(4-(4-chlorobenzylsulfonylimino)-1-oxo-1,4-dihydronaphthalen-2-ylthio)-acetate] | 6.9 µM and 7.6 µM and > 10 µM (4×) | IC50 [2]: 7.25 µM
40 | CCSc1cc(NS(=O)(=O)c2cccs2)c2ccccc2c1O [YG2-087-1, N-(3-(ethylthio)-4-hydroxynaphthalen-1-yl)thiophene-2-sulfonamide] | – | proteasome inhibitory activity, SAR statement in words: the inhibitory activity totally lost
41 | Nc1ccc(SCC(=O)O)c2ccccc12 [YG3-005, 2-(4-aminonaphthalen-1-ylthio)acetic acid] | > 10 µM | –
42 | CC(C)(C)OC(=O)CC1C(=O)C(=O)c2ccccc2C1=O (centres unmarked) [YL2-015 4th spot] | > 10 µM | –
43 | CC(C)(C)OC(=O)COC1=C/C(=N\S(=O)(=O)c2cccs2)c2ccccc2C1=O [YL2-023, tert-Butyl-2-(1-oxo-4-(thiophen-2-ylsulfonylimino)-1,4-dihydronaphthalen-2-yloxy)acetate] | > 10 µM | –
